Test results from ChEMBL document CHEMBL1201862, “PubChem BioAssay data set” (2004).
Active and inactive are the calls of the source. Cut-off read from the data, not from the text of the source, for most assays here: actives have a measured IC50 and inactives only a lower limit.

How the values were obtained:
[1] = molecular target: T1, Rac GTPase-activating protein 1 (Homo sapiens, UniProt Q9H0H5); assay: MgcRacGAP GTPase-activating activity inhibitors, confirmation, biochemical, ADP Hunter fluorescence, primary and confirmatory (AID 624330); format: functional
T1 sequence (Q9H0H5 whole entry): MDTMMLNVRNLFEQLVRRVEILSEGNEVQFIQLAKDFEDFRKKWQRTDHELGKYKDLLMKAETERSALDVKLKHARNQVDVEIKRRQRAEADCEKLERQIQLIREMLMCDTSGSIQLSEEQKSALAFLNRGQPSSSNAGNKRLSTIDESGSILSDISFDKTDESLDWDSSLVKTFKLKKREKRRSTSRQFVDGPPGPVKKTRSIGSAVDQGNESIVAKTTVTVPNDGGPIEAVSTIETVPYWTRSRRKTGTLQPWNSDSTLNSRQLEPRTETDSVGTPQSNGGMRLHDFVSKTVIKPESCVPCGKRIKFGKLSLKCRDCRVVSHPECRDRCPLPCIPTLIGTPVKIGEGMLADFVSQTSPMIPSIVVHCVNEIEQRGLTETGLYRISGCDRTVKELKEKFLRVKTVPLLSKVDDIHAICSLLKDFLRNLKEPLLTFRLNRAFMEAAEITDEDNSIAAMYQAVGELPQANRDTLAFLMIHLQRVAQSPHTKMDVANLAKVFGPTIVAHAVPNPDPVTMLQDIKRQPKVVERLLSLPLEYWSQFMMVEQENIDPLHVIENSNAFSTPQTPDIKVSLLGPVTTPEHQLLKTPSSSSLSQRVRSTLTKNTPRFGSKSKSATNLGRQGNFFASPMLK

[2] = molecular target: Beta-2 adrenergic receptor (Homo sapiens, UniProt P07550); assay: beta2AR agonists driving receptor internalization, dose response, cell-based, FAP fluorogen, flow cytometry, cherry pick 1 (AID 588763); format: functional
Sequence of Beta-2 adrenergic receptor (P07550 whole entry): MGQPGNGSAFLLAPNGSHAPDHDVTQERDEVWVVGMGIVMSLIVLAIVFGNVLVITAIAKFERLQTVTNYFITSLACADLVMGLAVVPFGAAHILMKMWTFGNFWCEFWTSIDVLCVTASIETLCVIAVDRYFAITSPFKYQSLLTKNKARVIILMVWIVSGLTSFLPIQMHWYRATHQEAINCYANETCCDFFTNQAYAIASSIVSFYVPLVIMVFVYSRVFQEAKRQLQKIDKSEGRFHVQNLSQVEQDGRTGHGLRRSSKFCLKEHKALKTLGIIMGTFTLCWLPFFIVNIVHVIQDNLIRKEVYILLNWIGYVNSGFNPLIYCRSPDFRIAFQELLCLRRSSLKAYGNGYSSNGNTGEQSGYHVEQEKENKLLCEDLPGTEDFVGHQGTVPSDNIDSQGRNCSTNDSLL

[3] = molecular target: T2, Ubiquitin-conjugating enzyme E2 N (Homo sapiens, UniProt P61088); format: functional
T2 sequence (P61088 whole entry): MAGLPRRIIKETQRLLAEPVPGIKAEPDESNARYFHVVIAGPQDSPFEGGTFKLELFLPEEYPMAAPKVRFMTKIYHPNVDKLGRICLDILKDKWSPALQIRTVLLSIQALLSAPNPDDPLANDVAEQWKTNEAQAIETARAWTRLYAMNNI

[4] = molecular target: T2, Ubiquitin-conjugating enzyme E2 N; format: functional; remark: listed apart in the source
[5] = molecular target: T3, Apoptotic protease-activating factor 1 (Homo sapiens, UniProt O14727); format: functional
T3 sequence (O14727 whole entry): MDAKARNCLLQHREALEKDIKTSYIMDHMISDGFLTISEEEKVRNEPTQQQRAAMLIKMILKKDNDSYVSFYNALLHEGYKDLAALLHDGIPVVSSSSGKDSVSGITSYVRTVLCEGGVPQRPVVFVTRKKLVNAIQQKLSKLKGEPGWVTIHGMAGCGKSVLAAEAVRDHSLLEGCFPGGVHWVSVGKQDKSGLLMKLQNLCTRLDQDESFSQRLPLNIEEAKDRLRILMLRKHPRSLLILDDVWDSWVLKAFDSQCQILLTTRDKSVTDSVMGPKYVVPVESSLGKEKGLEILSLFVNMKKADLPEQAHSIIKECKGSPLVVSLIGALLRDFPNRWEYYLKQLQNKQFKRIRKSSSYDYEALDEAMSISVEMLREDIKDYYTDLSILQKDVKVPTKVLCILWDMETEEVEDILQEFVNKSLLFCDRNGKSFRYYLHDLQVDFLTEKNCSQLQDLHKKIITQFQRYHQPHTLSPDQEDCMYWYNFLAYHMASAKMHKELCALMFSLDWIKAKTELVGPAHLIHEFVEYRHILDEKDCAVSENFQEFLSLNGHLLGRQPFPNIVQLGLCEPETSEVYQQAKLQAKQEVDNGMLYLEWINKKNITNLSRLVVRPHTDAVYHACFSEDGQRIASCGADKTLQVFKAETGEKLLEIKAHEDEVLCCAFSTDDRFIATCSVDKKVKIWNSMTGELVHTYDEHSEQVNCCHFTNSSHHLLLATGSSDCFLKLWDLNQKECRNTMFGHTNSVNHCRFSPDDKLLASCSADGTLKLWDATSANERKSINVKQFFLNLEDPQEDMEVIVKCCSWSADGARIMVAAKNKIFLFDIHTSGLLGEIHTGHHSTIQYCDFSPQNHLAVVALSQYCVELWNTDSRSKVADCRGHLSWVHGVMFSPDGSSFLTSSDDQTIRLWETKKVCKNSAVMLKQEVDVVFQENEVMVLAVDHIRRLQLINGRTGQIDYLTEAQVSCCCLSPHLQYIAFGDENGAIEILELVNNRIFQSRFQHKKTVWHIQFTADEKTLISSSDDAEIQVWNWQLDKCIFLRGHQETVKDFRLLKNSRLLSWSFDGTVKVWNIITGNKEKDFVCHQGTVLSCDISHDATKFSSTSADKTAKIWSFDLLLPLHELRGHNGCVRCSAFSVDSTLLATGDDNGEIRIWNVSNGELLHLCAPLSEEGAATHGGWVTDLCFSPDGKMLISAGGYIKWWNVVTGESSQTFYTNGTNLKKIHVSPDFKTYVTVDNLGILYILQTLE

Vero = assay: cells; format: functional, cell-based; settings: Chlorocebus sabaeus
Bcl-2-related protein A1 = molecular target: T4, Bcl-2-related protein A1 (Mus musculus, UniProt Q07440); format: functional;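 note: confirmatory dose–response counterscreen on Bfl-1, used to check hits from a UBC13 polyubiquitin inhibitor campaign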
T4 sequence (Q07440 whole entry): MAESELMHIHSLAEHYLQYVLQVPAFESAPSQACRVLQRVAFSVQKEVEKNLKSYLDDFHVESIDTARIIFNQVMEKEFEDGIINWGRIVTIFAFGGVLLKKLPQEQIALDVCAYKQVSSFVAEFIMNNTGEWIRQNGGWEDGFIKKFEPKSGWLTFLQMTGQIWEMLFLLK

[6] = molecular target: T5, DNA repair and recombination protein RAD54-like (Homo sapiens, UniProt Q92698); assay: inhibitors of human RAD54 branch migration, confirmation, biochemical, fluorescence, cherry-picked samples, dose series (AID 651657); format: functional
T5 sequence (Q92698 whole entry): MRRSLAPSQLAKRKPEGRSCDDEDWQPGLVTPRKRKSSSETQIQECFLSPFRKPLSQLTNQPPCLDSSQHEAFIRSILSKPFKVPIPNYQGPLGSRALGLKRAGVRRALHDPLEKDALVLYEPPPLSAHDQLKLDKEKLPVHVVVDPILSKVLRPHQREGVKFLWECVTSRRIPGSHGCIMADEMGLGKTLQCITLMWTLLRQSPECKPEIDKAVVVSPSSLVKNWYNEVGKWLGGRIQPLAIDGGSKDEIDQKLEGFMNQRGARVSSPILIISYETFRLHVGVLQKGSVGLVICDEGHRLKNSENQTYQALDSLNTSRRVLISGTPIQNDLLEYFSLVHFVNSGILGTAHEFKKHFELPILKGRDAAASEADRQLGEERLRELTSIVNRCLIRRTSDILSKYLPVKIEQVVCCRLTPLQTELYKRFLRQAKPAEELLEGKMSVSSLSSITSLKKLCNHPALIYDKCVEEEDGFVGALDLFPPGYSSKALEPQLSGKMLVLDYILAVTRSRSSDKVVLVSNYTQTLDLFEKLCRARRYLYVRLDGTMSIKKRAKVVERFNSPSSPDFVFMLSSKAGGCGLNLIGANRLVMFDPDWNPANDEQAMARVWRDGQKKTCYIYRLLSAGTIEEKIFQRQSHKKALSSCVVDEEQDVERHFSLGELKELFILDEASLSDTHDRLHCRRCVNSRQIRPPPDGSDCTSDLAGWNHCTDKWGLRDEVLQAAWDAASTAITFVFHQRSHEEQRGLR

[7] = molecular target: T6, Sentrin-specific protease 7 (Homo sapiens, UniProt Q9BQF6); format: functional;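 note: Luminescence-based dose-response confirmation of ultra-high-throughput screening hits, measuring inhibition of SENP7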
T6 sequence (Q9BQF6 whole entry): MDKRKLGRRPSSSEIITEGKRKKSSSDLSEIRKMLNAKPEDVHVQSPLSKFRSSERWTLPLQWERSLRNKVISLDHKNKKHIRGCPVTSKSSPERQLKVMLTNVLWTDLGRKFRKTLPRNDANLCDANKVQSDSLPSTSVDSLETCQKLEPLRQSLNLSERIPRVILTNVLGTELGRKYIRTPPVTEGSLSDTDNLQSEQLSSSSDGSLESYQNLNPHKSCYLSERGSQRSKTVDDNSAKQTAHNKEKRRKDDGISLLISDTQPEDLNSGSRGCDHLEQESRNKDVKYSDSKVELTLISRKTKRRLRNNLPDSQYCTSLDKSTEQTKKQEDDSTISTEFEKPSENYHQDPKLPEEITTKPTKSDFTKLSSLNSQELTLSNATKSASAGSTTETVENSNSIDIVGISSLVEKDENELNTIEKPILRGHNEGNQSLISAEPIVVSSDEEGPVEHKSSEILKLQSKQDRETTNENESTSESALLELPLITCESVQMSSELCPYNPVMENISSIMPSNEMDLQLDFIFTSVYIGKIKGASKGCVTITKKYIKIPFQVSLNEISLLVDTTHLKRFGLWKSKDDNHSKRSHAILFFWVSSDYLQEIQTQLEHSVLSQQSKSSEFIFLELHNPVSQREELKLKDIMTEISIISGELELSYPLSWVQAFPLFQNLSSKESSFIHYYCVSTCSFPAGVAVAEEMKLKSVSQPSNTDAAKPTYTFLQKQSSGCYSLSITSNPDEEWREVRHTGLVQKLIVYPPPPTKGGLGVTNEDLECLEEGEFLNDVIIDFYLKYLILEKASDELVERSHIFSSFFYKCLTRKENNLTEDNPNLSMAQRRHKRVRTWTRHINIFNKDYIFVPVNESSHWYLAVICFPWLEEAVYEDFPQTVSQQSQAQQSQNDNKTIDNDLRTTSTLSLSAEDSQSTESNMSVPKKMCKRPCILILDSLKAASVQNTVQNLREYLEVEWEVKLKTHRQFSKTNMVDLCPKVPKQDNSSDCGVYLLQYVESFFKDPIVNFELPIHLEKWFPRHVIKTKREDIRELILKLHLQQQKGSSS

[8] = molecular target: T7, Sentrin-specific protease 6 (Homo sapiens, UniProt Q9GZR1); format: functional;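 note: Luminescence-based dose-response confirmatory assay of SENP6 inhibition, following up an ultra-high-throughput screen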
T7 sequence (Q9GZR1 whole entry): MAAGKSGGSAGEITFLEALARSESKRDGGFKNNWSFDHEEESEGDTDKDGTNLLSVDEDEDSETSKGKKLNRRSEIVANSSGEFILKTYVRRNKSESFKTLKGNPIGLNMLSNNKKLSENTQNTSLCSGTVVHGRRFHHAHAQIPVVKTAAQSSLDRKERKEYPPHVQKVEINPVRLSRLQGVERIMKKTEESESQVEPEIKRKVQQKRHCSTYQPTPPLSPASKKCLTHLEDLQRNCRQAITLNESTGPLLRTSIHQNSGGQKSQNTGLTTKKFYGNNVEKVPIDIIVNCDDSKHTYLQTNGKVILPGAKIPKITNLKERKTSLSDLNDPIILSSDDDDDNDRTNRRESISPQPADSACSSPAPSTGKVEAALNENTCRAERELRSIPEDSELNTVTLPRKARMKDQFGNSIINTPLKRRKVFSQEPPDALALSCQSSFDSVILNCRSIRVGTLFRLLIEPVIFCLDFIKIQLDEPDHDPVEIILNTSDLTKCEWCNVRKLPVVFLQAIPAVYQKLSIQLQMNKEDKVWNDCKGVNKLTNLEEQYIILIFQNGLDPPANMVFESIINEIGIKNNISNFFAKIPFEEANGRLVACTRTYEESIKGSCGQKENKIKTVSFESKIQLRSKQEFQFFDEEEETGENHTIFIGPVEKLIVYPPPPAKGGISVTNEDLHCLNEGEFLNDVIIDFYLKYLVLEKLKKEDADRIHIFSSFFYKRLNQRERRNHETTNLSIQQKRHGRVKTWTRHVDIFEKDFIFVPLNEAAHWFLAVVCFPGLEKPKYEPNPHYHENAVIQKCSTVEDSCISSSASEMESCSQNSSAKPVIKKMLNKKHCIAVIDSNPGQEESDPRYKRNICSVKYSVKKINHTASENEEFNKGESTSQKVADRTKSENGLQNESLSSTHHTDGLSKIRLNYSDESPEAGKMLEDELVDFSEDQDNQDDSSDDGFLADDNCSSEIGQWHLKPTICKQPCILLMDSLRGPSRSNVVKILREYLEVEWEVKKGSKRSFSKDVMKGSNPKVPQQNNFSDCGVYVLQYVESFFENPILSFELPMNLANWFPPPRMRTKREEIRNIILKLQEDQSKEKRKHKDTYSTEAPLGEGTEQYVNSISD

[9] = molecular target: T8, Sentrin-specific protease 8 (Homo sapiens, UniProt Q96LD8); format: functional;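 note: luminescence read-out of SENP8 inhibition, dose-response confirmation following an ultra-high-throughput screen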
T8 sequence (Q96LD8 whole entry): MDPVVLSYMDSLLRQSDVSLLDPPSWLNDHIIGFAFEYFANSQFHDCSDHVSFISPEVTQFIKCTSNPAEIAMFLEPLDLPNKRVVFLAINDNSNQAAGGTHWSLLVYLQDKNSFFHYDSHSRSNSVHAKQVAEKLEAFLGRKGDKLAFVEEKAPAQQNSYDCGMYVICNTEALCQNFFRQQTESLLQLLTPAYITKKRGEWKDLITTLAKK

Caspase-3 = molecular target: T9, Caspase-3 (Homo sapiens, UniProt P42574); format: functional;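 note: Dose-response selectivity test against caspase-3 for candidate inhibitors of sentrin-specific proteases (SENPs)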
T9 sequence (P42574 whole entry): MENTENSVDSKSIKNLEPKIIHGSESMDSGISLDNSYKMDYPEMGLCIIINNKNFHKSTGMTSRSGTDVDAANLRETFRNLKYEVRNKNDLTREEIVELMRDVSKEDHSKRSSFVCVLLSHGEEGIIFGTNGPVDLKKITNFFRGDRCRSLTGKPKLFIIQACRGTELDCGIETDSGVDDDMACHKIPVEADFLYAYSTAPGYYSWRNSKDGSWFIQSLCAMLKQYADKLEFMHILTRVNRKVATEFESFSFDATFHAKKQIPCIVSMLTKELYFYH

Structure (SMILES) | IC50 [1] | EC50 [2] | IC50 [3] | IC50 [4] | IC50 [5] | IC50 (Vero) | IC50 (Bcl-2-related protein A1) | AC50 [6] | IC50 [7] | IC50 [8] | IC50 [9] | IC50 (Caspase-3)
COc1cc2nc(N3CCNCC3)nc(N)c2cc1OC | 63.1 µM (active) | 8.61 µM (inactive) | 1.5 µM (active) | 0.873 µM (active) | 31.5 µM (active) | 22.4 µM (active) | 11.1 µM (active) | 1.49 µM (active) |  |  |  | 
O=C(CCc1ccccc1)c1ccc2c(c1)OCCCO2 |  |  |  |  |  |  |  |  | 9.59 µM (active) | 32.8 µM (active) | 27.3 µM (active) | 28.9 µM (active)
Cc1cc(N/N=C/c2ccc3c(c2)OCO3)nc2ccccc12 |  |  |  |  |  |  |  |  | 4.64 µM (active) | 17.6 µM (active) | 21.9 µM (active) | 27.6 µM (active)
